Literature values in US20120289568A1, “COMBINATIONS OF OXYBUTYNIN AND SALIVARY STIMULANTS FOR THE TREATMENT OF OVERACTIVE BLADDER” (THERAVIDA, INC., priority 2011, published 2012).

Details: 5 mg of pilocarpine

CC[C@@H]1C(=O)OC[C@@H]1Cc1cncn1C [pilocarpine]
time of maximum saliva output after administration: about 30 minutes
